From patent US20120295845A1, “IMIDAZO-PYRAZOLES AS GPR119 INHIBITORS” (Pfizer Inc, priority 2009, published 2012)
Values joined by “and” are separate entries in the source; they are usually repeats but may differ in a detail not shown here. Equal values may be shown once. Read-outs that look alike come from different tables or passages of the source.

Biological target: T1, human GPR119 (Homo sapiens, UniProt Q8TDV5)
T1 construct: host or cells: HEK293-CRE beta-lactamase cells
T1 sequence (Q8TDV5 1-335): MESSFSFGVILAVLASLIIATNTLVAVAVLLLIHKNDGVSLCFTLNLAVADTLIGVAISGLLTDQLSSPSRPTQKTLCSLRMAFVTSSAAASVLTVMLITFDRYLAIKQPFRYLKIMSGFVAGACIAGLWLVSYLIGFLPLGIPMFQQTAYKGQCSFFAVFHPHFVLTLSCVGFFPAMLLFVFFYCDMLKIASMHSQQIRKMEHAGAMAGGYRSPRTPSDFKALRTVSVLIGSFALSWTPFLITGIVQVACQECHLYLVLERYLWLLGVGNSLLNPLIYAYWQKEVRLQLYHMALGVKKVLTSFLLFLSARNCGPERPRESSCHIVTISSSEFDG
Experiment: beta-lactamase functional assay (hGPR119 HEK293-CRE beta-lactamase reporter)
Format: cell-based
Conditions: for EC50: read-out: Human B-lactamase Functional EC50; for Emax: read-out: Intrinsic Activity* (B-lactamase)
Method: The assay for GPR119 agonists utilizes a cell-based (hGPR119 HEK293-CRE beta-lactamase) reporter construct where agonist activation of human GPR119 is coupled to beta-lactamase production via a cyclic AMP response element (CRE). GPR119 activity is then measured utilizing a FRET-enabled beta-lactamase substrate, CCF4-AM (Live Blazer FRET-B/G Loading kit, Invitrogen cat # K1027). Specifically, hGPR119-HEK-CRE- beta-lactamase cells (Invitrogen 2.5×10^7/mL) were removed from liquid nitrogen storage, and diluted in plating medium (Dulbecco's modified Eagle medium high glucose (DMEM; Gibco Cat # 11995-065), 10% heat inactivated fetal bovine serum (HIFBS; Sigma Cat # F4135), 1×MEM Nonessential amino acids (Gibco Cat # 15630-080), 25 mM HEPES pH 7.0 (Gibco Cat # 15630-080), 200 nM potassium clavulanate (Sigma Cat # P3494). The cell concentration was adjusted using cell plating medium and 50 microL of this cell suspension ([…]) was added into each well of a black, clear bottom, poly-d-lysine coated 384-well plate (Greiner Bio-One cat# 781946) and incubated at 37 degrees Celsius in a humidified environment containing 5% carbon dioxide. After 4 hours the plating medium was removed and replaced with 40 microL of assay medium (Assay medium is plating medium without potassium clavulanate and HIFBS). Varying concentrations of each compound to be tested was then added in a volume of 10 microL (final DMSO≦0.5%) and the cells were incubated for 16 hours at 37 degrees Celsius in a humidified environment containing 5% carbon dioxide. Plates were removed from the incubator and allowed to equilibrate to room temperature for approximately 15 minutes. 10 microL of 6×CCF4/AM working dye solution (prepared according to instructions in the Live Blazer FRET-B/G Loading kit, Invitrogen cat # K1027) was added per well and incubated at room temperature for 2 hours in the dark. Fluorescence was measured on an EnVision fluorimetric plate reader, excitation 405 nm, emission 460 nm/535 nm. EC50 determinations were made from agonist-response curves analyzed with a curve fitting program using a 4-parameter logistic dose-response equation.

[1] = percent of maximal activity relative to standard GPR119 agonist (WO2005121121) at 10 microM, one value per run

- EC50 (curve was extrapolated to 100% to calculate the EC50 (**), one value per run): 8190 nM and 4570 nM
- EC50 (hGPR119 HEK293-CRE beta-lactamase cells, 16 h incubation, one value per run): 612 nM and 386 nM and 1150 nM and 1440 nM
- Emax (marked **: curve extrapolated to 100%, relative to standard GPR119 agonist at 10 microM): 100%
- Intrinsic Activity* (B-lactamase) [1]: 94% and 96%
- Emax [1]: 110%
Structure (SMILES): Cc1c(OC2CCN(C(=O)OC(C)C)CC2)ncnc1N1CCn2nccc21 [Example 1, Isopropyl 4-{[6-(2,3-dihydro-1H-imidazo[1,2-b]pyrazol-1-yl)-5-methylpyrimidin-4-yl]oxy}piperidine-1-carboxylate]
